Values after ≈ are worked out from the molar mass of the structure shown. Like-named read-outs stand apart in the source and are kept apart here. Values belong to the compound of their own block, whether it stands above or below them.
What was measured:
[1] = Solubility of drugs in water and complexed with cyclodextrins; assay type: physicochemical
[2] = Complexation coefficients of drugs with cyclodextrins; assay type: physicochemical; conditions: calculated from solubility values
[3] = Release of small molecules from polymeric cyclodextrin-containing LbL films in phosphate buffer (fluorescence spectroscopy); assay type: physicochemical; conditions: 20 bilayers; for Release Rate: from poly A3/poly(BCD) films, phosphate buffer pH 7.4
Procedure: Release profiles were investigated by monitoring the release of the small molecule using a fluorimeter and the degradation of non-radiolabeled films. For drug release experiments, 20 bilayer films were constructed using carboxymethylbeta-cyclodextrin polymer:drug conjugate solution. The deposition solutions were prepared by combining 25 μM carboxymethylbeta-cyclodextrin polymers solution in 0.1 M sodium acetate buffer (1 Mn=8,000), with the various small molecules. After fabrication, each twenty bilayer film was immersed in 10 mL phosphate buffer solution (pH 7.4, 137 mM NaCl, 2.7 mM KCl, 10 mM Na2HPO4). A 1 mL sample was extracted at various time points and analyzed via fluorescence spectroscopy. Degradation vials were tightly capped between sample extractions to prevent evaporation of the buffer solution. Raw spectrum data were converted to micrograms (μg) of drug released using a calibration curve for a given molecule at a defined emission wavelength.
Poly(BCD)-prodan inclusion complexes were made by dissolving prodan in poly(BCD) as described for poly(BCD)-ciprofloxacin inclusion complexes in Example 3. (Poly 1/poly(BCD)-prodan)20 films were constructed by layer-by-layer deposition and prodan release studies were conducted as described in Example 1.
Formation of poly(BCD): drug inclusion complexes and film construction were achieved by methods as described in Examples 1-3; release studies were performed as described in Example 4. Solubility values and complexation coefficients were determined and/or calculated according to previously published methods (Brewster et al. 2007. “Cyclodextrins as pharmaceutical solubilizers.” Advanced Drug Delivery. 59: 645-666).

[4] = Release of 14C-dextran sulfate from LbL films in phosphate buffer (scintillation counting); assay type: physicochemical; conditions: films built with poly A3, 20 bilayers, phosphate buffer pH 7.4; approximately linear kinetics
Procedure: Release profiles were investigated by monitoring the release of ^14C-dextran sulfate and the degradation of non-radiolabeled films. For drug release experiments, 20 bilayer radiolabeled films were constructed using ^14C-dextran sulfate solution. The radiolabled deposition solutions were prepared by combining ^14C-dextran sulfate (1.5 mCi/g, Mn=8,000), unlabeled dextran sulfate (Mn=8,000), and 100 mM acetate buffer to yield a total concentration of dextran sulfate (unlabeled plus labeled) to 2 mg/mL (1 μCi/mL ^14C). After fabrication, each twenty bilayer film was immersed in 30 mL phosphate buffer solution (pH 7.4, 137 mM NaCl, 2.7 mM KCl, 10 mM Na2HPO4). A 1 mL sample was extracted at various time points and analyzed via scintillation counting. Scintillation counting was performed on a Tri-carb liquid scintillation counter (Model U2200) and the amount of radiolabel in each sample vial was measured using ^14C protocol. Degradation vials were tightly capped between sample extractions to prevent evaporation of the buffer solution. Raw data (disintegrations per minute, DPM) were converted to micrograms (μg) of drug released using the conversion factor 2.2×10^6 DPM=1 μCi, the specific radioactivity of the drug, and knowledge of the ratio of total drug to labeled drug in the deposition solution.

cyclooxygenase (COX) = assay: Inhibition of cyclooxygenase by film release buffer in A549 cells, prostaglandin E2 concentration measured; assay type: cell-based, human; conditions: A549 cells exposed to aliquots of release buffer, buffer replaced every 24 hours
Description: To determine if polymeric cyclodextrin alters drug activity, the inhibition of cyclooxygenase (COX) by diclofenac was investigated. COX is the rate limiting enzyme in the production of prostaglandins, which are important in homeostasis and inflammatory pathways (T. D. Warner et al., Proceedings of the National Academy of Sciences of the United States of America 1999, 96, 9966). A549 human lung carcinoma cells were exposed to aliquots of release buffer, and prostaglandin E2 concentration was measured. In the experiment, the release buffer was replaced every 24 hours, so that time points measured the activity of the drug released during each specific 24 hour period. […] The approach here is a utilization of a charged polymeric carrier capable of facile reversible complexation with the drug of choice in alternation with a degradable polyion. Charged cyclodextrin polymers were used for the trapping of cyclodextrin-drug complexes in stable, surface eroding films capable of drug release within the cyclodextrin carrier without altering activity. […] This technology can be applied to nanomedicine coatings for applications in personalized medicine, transdermal delivery, medical devices, nanoparticulate carriers, prosthetic implants, as well as small molecules for imaging, agriculture, and basic scientific research.

[5] = drug complexed with cyclodextrins, aqueous with cosolvent or surfactant or cyclodextrin, read-out: St, solubility complexed with cyclodextrins

Compound: dextran sulfate
time span over which dextran sulfate continued to be released [4]: at least 8 days

Compound: O=C(O)Cc1ccccc1Nc1c(Cl)cccc1Cl [Diclofenac]
solubility [1, 5]: 2800 µg/mL (≈ 9450 µM)
solubility ([1]; in water, read-out: S0, solubility in water): 2 µg/mL (≈ 6.75 µM)
Release Rate [3]: 5 ng/h
activity of released drug: COX inhibition, suppressed prostaglandin production (cyclooxygenase (COX)): highly active

Other lines, results leading:

solubility [1, 5]: 540 µg/mL (≈ 2210 µM)
S0, solubility in water ([1]; in water): 8 µg/mL
Kc, complexation coefficient [2]: 4930 M⁻¹
Release Rate [3]: 4 ng/h
Compound: CC(C(=O)O)c1ccc(-c2ccccc2)c(F)c1 (stereo not drawn) [Flurbiprofen]

Kc, complexation coefficient [2]: 4300 M⁻¹
Release Rate [3]: 1 ng/h
Compound: COc1ccc2cc([C@H](C)C(=O)O)ccc2c1 [Naproxen]

time through which ciprofloxacin continued to be released (latest time point tested) ([3]; poly 1/poly(BCD)-ciprofloxacin films, phosphate buffer): ≥ 69.3 h
Compound: O=C(O)c1cn(C2CC2)c2cc(N3CCNCC3)c(F)cc2c1=O [Ciprofloxacin]
